Measured values: ChEMBL document CHEMBL3797153, “Discovery of acyl guanidine tryptophan hydroxylase-1 inhibitors” (Bioorg Med Chem Lett, 2016)
Values after ≈ are worked out from the molar mass of the structure shown.

Experiments:
[1] = Kinetic aqueous solubility in pH 7.4 50 mM phosphate buffer; assay type: physicochemical; conditions: read-out: Kinetic_solubility
[2] = Protein binding in rat plasma by equilibrium dialysis; assay type: ADME, cell-free; conditions: read-out: PPB (converted)
Mus musculus = assay: In-vivo inhibition of TPH1 in mouse assessed as 5-HT level in intestinal mucosa at 150 mg/kg, po administered as single dose relative to control; assay type: functional; design: scale not given: the % may be the effect or the level left

COc1cccc(Oc2cccc(N3CCCCC3)c2CN/C(N)=N/C(=O)c2ccc(C[C@H](N)C(=O)O)cc2)c1
solubility kinetic [1]: > 40 µM
fraction unbound [2]: 0.12

N/C(=N\C(=O)c1ccc(C[C@H](N)C(=O)O)cc1)NCc1cc(-c2ccccc2)ccc1N1CCCCC1
solubility kinetic [1]: 16 µM (≈ 7.99 µg/mL)

Cc1cccc(N2CCCCCC2)c1CN/C(N)=N/C(=O)c1ccc(C[C@H](N)C(=O)O)cc1
solubility kinetic [1]: 40 µM (≈ 18.1 µg/mL)
Activity (Mus musculus): 72%

N/C(=N\C(=O)c1ccc(C[C@H](N)C(=O)O)cc1)NCc1c(Oc2ccccc2)cccc1N1CCCCC1
Activity (Mus musculus): 80%

CCOC(=O)[C@@H](N)Cc1ccc(C(=O)/N=C(\N)NCc2c(C)cccc2N2CCCCCC2)cc1
Activity (Mus musculus): 62%

CCOC(=O)[C@@H](N)Cc1ccc(C(=O)/N=C(\N)NCc2c(Oc3ccccc3)cccc2N2CCCCC2)cc1
Activity (Mus musculus): 62%

Nc1nc(OC(c2ccc(-c3cccc(F)c3)cc2)C(F)(F)F)cc(-c2ccc(C[C@H](N)C(=O)O)cc2)n1 (stereo not given in full)
solubility kinetic [1]: 2.1 µM (≈ 1.11 µg/mL)
fraction unbound [2]: < 0.001
